Results as given in the NIST ThermoML archive (doi:10.1021/acs.jced.5b00317).

Assays:
[1] = mn = molality of the nth substance listed, in mol/kg; conditions: 101 kPa, Liquid; for speed of sound: Sing-around technique in a fixed-path interferometer; for mass density: Vibrating tube method
[2] = cn = amount concentration of the nth substance listed, in mol/dm3; conditions: 101 kPa, Liquid; for speed of sound: Sing-around technique in a fixed-path interferometer; for mass density: Vibrating tube method

Cc1onc(-c2c(F)cccc2Cl)c1C(=O)N[C@@H]1C(=O)N2[C@@H]1SC(C)(C)[C@@H]2C(=O)[O-].[Na+] + O
[1]
Conditions	mass density [kg/m3]	speed of sound [m/s]
298.15 K, m1 = 0.03508	1003.21	1503
298.15 K, m1 = 0.05711	1007	1506.4
298.15 K, m1 = 0.07305	1009.68	1508.6
298.15 K, m1 = 0.09335	1013.04	1511.2
298.15 K, m1 = 0.1142	1016.42	1513.7
298.15 K, m1 = 0.1343	1019.68	1515.8
298.15 K, m1 = 0.148	1021.89	1517.2
298.15 K, m1 = 0.1675	1025.02	1518.9
298.15 K, m1 = 0.1812	1027.16	1520.1
303.15 K, m1 = 0.03508	1001.74	1514.8
303.15 K, m1 = 0.05711	1005.49	1517.8
303.15 K, m1 = 0.07305	1008.14	1519.9
303.15 K, m1 = 0.09335	1011.46	1522.2
303.15 K, m1 = 0.1142	1014.8	1524.4
303.15 K, m1 = 0.1343	1018.04	1526.4
303.15 K, m1 = 0.148	1020.23	1527.6
303.15 K, m1 = 0.1675	1023.33	1529.2
303.15 K, m1 = 0.1812	1025.46	1530.2
308.15 K, m1 = 0.03508	1000.05	1524.9
308.15 K, m1 = 0.05711	1003.77	1527.6
308.15 K, m1 = 0.07305	1006.39	1529.5
308.15 K, m1 = 0.09335	1009.67	1531.6
308.15 K, m1 = 0.1142	1012.98	1533.5
308.15 K, m1 = 0.1343	1016.18	1535.3
308.15 K, m1 = 0.148	1018.35	1536.4
308.15 K, m1 = 0.1675	1021.43	1537.8
308.15 K, m1 = 0.1812	1023.54	1538.7
313.15 K, m1 = 0.03508	998.174	1533.5
313.15 K, m1 = 0.05711	1001.85	1535.9
313.15 K, m1 = 0.07305	1004.44	1537.5
313.15 K, m1 = 0.09335	1007.69	1539.4
313.15 K, m1 = 0.1142	1010.97	1541.1
313.15 K, m1 = 0.1343	1014.14	1542.7
313.15 K, m1 = 0.148	1016.29	1543.7
313.15 K, m1 = 0.1675	1019.34	1544.9
313.15 K, m1 = 0.1812	1021.43	1545.7
318.15 K, m1 = 0.03508	996.11	1540.5
318.15 K, m1 = 0.05711	999.746	1542.6
318.15 K, m1 = 0.07305	1002.31	1544.1
318.15 K, m1 = 0.09335	1005.53	1545.7
318.15 K, m1 = 0.1142	1008.77	1547.3
318.15 K, m1 = 0.1343	1011.91	1548.7
318.15 K, m1 = 0.148	1014.05	1549.5
318.15 K, m1 = 0.1675	1017.07	1550.6
318.15 K, m1 = 0.1812	1019.15	1551.4
323.15 K, m1 = 0.03508	993.877	1546.1
323.15 K, m1 = 0.05711	997.477	1548
323.15 K, m1 = 0.07305	1000.02	1549.2
323.15 K, m1 = 0.09335	1003.2	1550.7
323.15 K, m1 = 0.1142	1006.42	1552.1
323.15 K, m1 = 0.1343	1009.52	1553.3
323.15 K, m1 = 0.148	1011.64	1554
323.15 K, m1 = 0.1675	1014.64	1555
323.15 K, m1 = 0.1812	1016.7	1555.7

[Cl-].[Na+] [sodium chloride] + O
[2]
Conditions	mass density [kg/m3]	speed of sound [m/s]
298.15 K, c1 = 0.0251	998.068	–
298.15 K, c1 = 0.0586	999.427	1501.1
298.15 K, c1 = 0.1021	1001.16	1503.8
298.15 K, c1 = 0.1483	1002.99	1506.4
298.15 K, c1 = 0.2047	1005.19	1509.4
298.15 K, c1 = 0.2543	1007.12	1511.8
303.15 K, c1 = 0.0251	996.654	1511.3
303.15 K, c1 = 0.0586	997.998	1513.4
303.15 K, c1 = 0.1021	999.715	1516
303.15 K, c1 = 0.1483	1001.52	1518.5
303.15 K, c1 = 0.2047	1003.7	1521.4
303.15 K, c1 = 0.2543	1005.61	1523.6
308.15 K, c1 = 0.0251	995.026	1521.9
308.15 K, c1 = 0.0586	996.357	1524
308.15 K, c1 = 0.1021	998.056	1526.5
308.15 K, c1 = 0.1483	999.851	1528.9
308.15 K, c1 = 0.2047	1002.01	1531.6
308.15 K, c1 = 0.2543	1003.9	1533.7
313.15 K, c1 = 0.0251	993.201	1531
313.15 K, c1 = 0.0586	994.523	–
313.15 K, c1 = 0.1021	996.208	1535.5
313.15 K, c1 = 0.1483	997.991	1537.8
313.15 K, c1 = 0.2047	1000.14	1540.3
313.15 K, c1 = 0.2543	1002.01	1542.3
318.15 K, c1 = 0.0251	991.192	1538.5
318.15 K, c1 = 0.0586	992.506	1540.5
318.15 K, c1 = 0.1021	994.181	1542.8
318.15 K, c1 = 0.1483	995.954	1545.1
318.15 K, c1 = 0.2047	998.089	1547.6
318.15 K, c1 = 0.2543	999.952	–
323.15 K, c1 = 0.0251	989.012	1544.6
323.15 K, c1 = 0.0586	990.317	1546.5
323.15 K, c1 = 0.1021	991.983	–
323.15 K, c1 = 0.1483	993.747	1551
323.15 K, c1 = 0.2047	995.872	1553.4
323.15 K, c1 = 0.2543	997.725	1555.2
